Source: ChEMBL document CHEMBL1201862, “PubChem BioAssay data set” (2004)
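Grown in 96-well plates, cells were treated for 48 hours with each compound at five concentrations. Insufficient inhibition: endpoint recorded as highest concentration tested. GI50 is the concentration that inhibits growth by half.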 Activity calls are given as the source filed them. Rule as the data show it: active = GI50 up to about 1.1 µM and inactive = higher.

How the values were obtained:
Assay in all cases: NCI-60 cell line screen, 48 h
[1] = system: MOLT-4
[2] = system: EKVX
[3] = system: HL-60
[4] = system: RPMI-8226
[5] = system: UO-31
[6] = system: NCI-H460
[7] = system: Malme-3M
[8] = system: NCI-H522
[9] = system: HCC 2998
[10] = system: SK-MEL-5
[11] = system: SF-268
[12] = system: ACHN
[13] = system: SW-620
[14] = system: HCT-15
[15] = system: A498
[16] = system: RXF 393
[17] = system: HT-29

SMILES	GI50 [1]	GI50 [2]	GI50 [3]	GI50 [4]	GI50 [5]	GI50 [6]	GI50 [7]	GI50 [8]	GI50 [9]	GI50 [10]	GI50 [11]	GI50 [12]	GI50 [13]	GI50 [14]	GI50 [15]	GI50 [16]	GI50 [17]
CC(C)OP(=O)(OC(C)C)/C(Cl)=N/Nc1ccc([N+](=O)[O-])cc1	53.6 µM (inactive)	> 100 µM (inactive)	43.7 µM (inactive)	> 100 µM (inactive)	> 100 µM (inactive)	> 100 µM (inactive)	> 100 µM (inactive)	> 100 µM (inactive)	> 100 µM (inactive)	> 100 µM (inactive)	> 100 µM (inactive)	> 100 µM (inactive)	> 100 µM (inactive)	> 100 µM	24 µM (inactive)		
COc1cc(/C=C\c2ccncc2)cc(OC)c1OC	59.4 µM (inactive)	70.8 µM (inactive)	24.1 µM (inactive)	38.3 µM (inactive)	72.3 µM (inactive)	46.6 µM (inactive)	> 100 µM (inactive)	43.3 µM (inactive)		57.5 µM (inactive)	> 100 µM (inactive)	> 100 µM (inactive)	43.2 µM (inactive)	55.7 µM	> 100 µM (inactive)	> 100 µM (inactive)	40.6 µM (inactive)
CS/C(=N\c1nccs1)NC(=O)c1cccc(Cl)c1	31 µM (inactive)	19 µM (inactive)	56.8 µM (inactive)	97.7 µM (inactive)	62.4 µM (inactive)	> 100 µM (inactive)	> 100 µM (inactive)	34.4 µM (inactive)	> 100 µM (inactive)	> 100 µM (inactive)	> 100 µM (inactive)	> 100 µM (inactive)	> 100 µM (inactive)	24.9 µM	81.8 µM (inactive)	> 100 µM (inactive)	> 100 µM (inactive)
COC(=O)C1CSC(c2csc(CCN)n2)=N1 (stereo not given)	> 100 µM (inactive)	> 100 µM (inactive)	> 100 µM (inactive)	> 100 µM (inactive)	> 100 µM (inactive)	> 100 µM (inactive)	> 100 µM (inactive)	> 100 µM (inactive)	> 100 µM (inactive)	> 100 µM (inactive)		> 100 µM (inactive)	> 100 µM (inactive)	> 100 µM		> 100 µM (inactive)	> 100 µM (inactive)
COc1ccc(/C=N/N=C(\N)NO)c(OC)c1	77.6 µM (inactive)	38.3 µM (inactive)		84.3 µM (inactive)	13.8 µM (inactive)		68.7 µM (inactive)	> 10 µM (inactive)	12.2 µM (inactive)	59.8 µM (inactive)	48.3 µM (inactive)	21 µM (inactive)	45.4 µM (inactive)	26.9 µM		54 µM (inactive)	
Cc1cc(C(=O)N2CCN(Cc3ccccc3)CC2)c(C)o1	> 100 µM (inactive)	> 100 µM (inactive)	25.4 µM (inactive)	> 100 µM (inactive)	> 100 µM (inactive)	> 100 µM (inactive)		> 100 µM (inactive)	> 100 µM (inactive)	> 100 µM (inactive)	> 100 µM (inactive)	> 100 µM (inactive)	> 100 µM (inactive)	> 100 µM	> 100 µM (inactive)		> 100 µM (inactive)
CCN(CC)CC(C(=O)Nc1c(C)cccc1C)/C(C)=N\NC(=S)NN (stereo not given)	> 100 µM (inactive)	> 100 µM (inactive)	> 100 µM (inactive)	> 100 µM (inactive)	> 100 µM (inactive)	> 100 µM (inactive)	> 100 µM (inactive)	> 100 µM (inactive)	> 100 µM (inactive)	> 100 µM (inactive)	> 100 µM (inactive)	> 100 µM (inactive)	> 100 µM (inactive)		> 100 µM (inactive)	> 100 µM (inactive)	> 100 µM (inactive)
Clc1cc2nc[nH]c2cc1Cl	> 100 µM (inactive)	> 100 µM (inactive)	> 100 µM (inactive)	> 100 µM (inactive)	48.2 µM (inactive)	> 100 µM (inactive)	> 100 µM (inactive)		> 100 µM (inactive)		> 100 µM (inactive)	> 100 µM (inactive)	> 100 µM (inactive)	> 100 µM	15.7 µM (inactive)		> 100 µM (inactive)
Nc1ncnc2c1ncn2C1(CO)OC(CO)C(O)C1O (stereo not given)	> 100 µM (inactive)		> 100 µM (inactive)	> 100 µM (inactive)		> 100 µM (inactive)	> 100 µM (inactive)	> 100 µM (inactive)	> 100 µM (inactive)	> 100 µM (inactive)	> 100 µM (inactive)	> 100 µM (inactive)	> 100 µM (inactive)	> 100 µM	> 100 µM (inactive)	> 100 µM (inactive)	> 100 µM (inactive)
CC1CCCc2c1c1ccc3c(O)cccc3c1oc2=O (stereo not given)	> 100 µM (inactive)	2.05 µM (inactive)	> 100 µM (inactive)	55.1 µM (inactive)	> 100 µM (inactive)	> 100 µM (inactive)	> 100 µM (inactive)	13.7 µM (inactive)	> 100 µM (inactive)		17.3 µM (inactive)	19.7 µM (inactive)	> 100 µM (inactive)	> 100 µM		18.8 µM (inactive)	> 100 µM (inactive)
c1c[nH]c(Cc2nc(Cc3c[nH]cn3)c[nH]2)n1	3.48 µM (inactive)	4.49 µM (inactive)	3.66 µM (inactive)	10.1 µM (inactive)		24 µM (inactive)	5.07 µM (inactive)	12.2 µM (inactive)	2.74 µM (inactive)	20.7 µM (inactive)	4.65 µM (inactive)	3.51 µM (inactive)	6.73 µM (inactive)	4.58 µM	9.79 µM (inactive)		4.12 µM (inactive)
N#CCc1nc2c(s1)C(=O)c1ccccc1C2=O	1.22 µM (inactive)	14.4 µM (inactive)		5.37 µM (inactive)	15.5 µM (inactive)	21.7 µM (inactive)	19.9 µM (inactive)	14.7 µM (inactive)	19.9 µM (inactive)	11.4 µM (inactive)	15.9 µM (inactive)	14.1 µM (inactive)	19.1 µM (inactive)	16.3 µM	32.7 µM (inactive)	30.6 µM (inactive)	22.8 µM (inactive)
CCOC(=O)NC(=O)c1cn(C2CCCCC2)c(=O)[nH]c1=O	41.8 µM (inactive)	> 100 µM (inactive)	7.53 µM (inactive)	63.5 µM (inactive)	56 µM (inactive)	32.2 µM (inactive)	> 100 µM (inactive)	> 100 µM (inactive)	53.6 µM (inactive)		> 100 µM (inactive)	35.6 µM (inactive)	17.4 µM (inactive)	53.8 µM	85.3 µM (inactive)		6.67 µM (inactive)
COc1cc(O)c2c(c1)O[C@@H]1OCC[C@H]21	> 100 µM (inactive)	> 100 µM (inactive)	> 100 µM (inactive)	> 100 µM (inactive)	> 100 µM (inactive)	> 100 µM (inactive)	> 100 µM (inactive)		> 100 µM (inactive)	> 100 µM (inactive)		> 100 µM (inactive)	> 100 µM (inactive)	> 100 µM	> 100 µM (inactive)		> 100 µM (inactive)
COc1cc2c(cc1OC)-c1c(cc(OC)c(OC)c1OC)C2=O	> 100 µM (inactive)	> 100 µM (inactive)	98.6 µM (inactive)	> 100 µM (inactive)	83.4 µM (inactive)	> 100 µM (inactive)	> 100 µM (inactive)	49 µM (inactive)	> 100 µM (inactive)	77.1 µM (inactive)	> 100 µM (inactive)	> 100 µM (inactive)	> 100 µM (inactive)	> 100 µM		> 100 µM (inactive)	> 100 µM (inactive)
CCOC(=O)C(=O)Nc1nc2ccc(OC)cc2s1	> 100 µM (inactive)	> 100 µM (inactive)	> 100 µM (inactive)	> 100 µM (inactive)	> 100 µM (inactive)	> 100 µM (inactive)	> 100 µM (inactive)	> 10 µM (inactive)	> 100 µM (inactive)	> 100 µM (inactive)	> 100 µM (inactive)	> 100 µM (inactive)	> 100 µM (inactive)	> 100 µM	> 100 µM (inactive)		> 100 µM (inactive)
NC(CCSCC(F)F)C(=O)O (stereo not given)	> 100 µM (inactive)	> 100 µM (inactive)	> 100 µM (inactive)		> 100 µM (inactive)	> 100 µM (inactive)	> 100 µM (inactive)	> 100 µM (inactive)	> 100 µM (inactive)	> 100 µM (inactive)	> 100 µM (inactive)	> 100 µM (inactive)	> 100 µM (inactive)	> 100 µM	> 100 µM (inactive)	> 100 µM (inactive)	> 100 µM (inactive)
O=C1CCNC/C1=C\c1ccccc1	24.7 µM (inactive)	> 100 µM (inactive)	16.3 µM (inactive)	24 µM (inactive)	17 µM (inactive)	30.9 µM (inactive)		11.3 µM (inactive)	20.1 µM (inactive)	20.3 µM (inactive)	19.6 µM (inactive)	22.9 µM (inactive)	21.8 µM (inactive)	17.1 µM	> 100 µM (inactive)		15.6 µM (inactive)
CC1=CP(=O)(c2ccccc2)C=C(C)C1=C(Cl)Cl (stereo not given)	3.91 µM (inactive)		2.12 µM (inactive)	2.5 µM (inactive)		3.35 µM (inactive)		2.6 µM (inactive)	15 µM (inactive)	4.67 µM (inactive)	3.98 µM (inactive)		3.82 µM (inactive)			16.9 µM (inactive)	3.55 µM (inactive)
